Experimental findings from PMC12518996 (Frontiers in Pharmacology, 2025) are described below.

CYP2C19, sequence (P33261 whole entry): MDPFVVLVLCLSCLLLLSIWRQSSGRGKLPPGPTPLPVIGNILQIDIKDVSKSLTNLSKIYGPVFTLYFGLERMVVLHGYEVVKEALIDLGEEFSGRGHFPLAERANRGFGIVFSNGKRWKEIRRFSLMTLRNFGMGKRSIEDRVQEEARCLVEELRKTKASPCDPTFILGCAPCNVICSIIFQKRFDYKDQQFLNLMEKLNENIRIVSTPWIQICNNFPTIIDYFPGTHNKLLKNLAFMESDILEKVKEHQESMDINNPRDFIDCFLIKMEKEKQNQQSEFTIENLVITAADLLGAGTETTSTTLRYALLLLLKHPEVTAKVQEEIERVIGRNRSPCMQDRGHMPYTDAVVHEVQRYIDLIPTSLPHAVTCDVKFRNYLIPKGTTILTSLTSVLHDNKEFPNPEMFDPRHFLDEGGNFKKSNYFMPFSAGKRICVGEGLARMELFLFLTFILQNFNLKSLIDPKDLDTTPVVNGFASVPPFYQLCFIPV

The target in one data set is T1, AOX (Homo sapiens, UniProt Q06278).
T1 sequence (Q06278 1-1338): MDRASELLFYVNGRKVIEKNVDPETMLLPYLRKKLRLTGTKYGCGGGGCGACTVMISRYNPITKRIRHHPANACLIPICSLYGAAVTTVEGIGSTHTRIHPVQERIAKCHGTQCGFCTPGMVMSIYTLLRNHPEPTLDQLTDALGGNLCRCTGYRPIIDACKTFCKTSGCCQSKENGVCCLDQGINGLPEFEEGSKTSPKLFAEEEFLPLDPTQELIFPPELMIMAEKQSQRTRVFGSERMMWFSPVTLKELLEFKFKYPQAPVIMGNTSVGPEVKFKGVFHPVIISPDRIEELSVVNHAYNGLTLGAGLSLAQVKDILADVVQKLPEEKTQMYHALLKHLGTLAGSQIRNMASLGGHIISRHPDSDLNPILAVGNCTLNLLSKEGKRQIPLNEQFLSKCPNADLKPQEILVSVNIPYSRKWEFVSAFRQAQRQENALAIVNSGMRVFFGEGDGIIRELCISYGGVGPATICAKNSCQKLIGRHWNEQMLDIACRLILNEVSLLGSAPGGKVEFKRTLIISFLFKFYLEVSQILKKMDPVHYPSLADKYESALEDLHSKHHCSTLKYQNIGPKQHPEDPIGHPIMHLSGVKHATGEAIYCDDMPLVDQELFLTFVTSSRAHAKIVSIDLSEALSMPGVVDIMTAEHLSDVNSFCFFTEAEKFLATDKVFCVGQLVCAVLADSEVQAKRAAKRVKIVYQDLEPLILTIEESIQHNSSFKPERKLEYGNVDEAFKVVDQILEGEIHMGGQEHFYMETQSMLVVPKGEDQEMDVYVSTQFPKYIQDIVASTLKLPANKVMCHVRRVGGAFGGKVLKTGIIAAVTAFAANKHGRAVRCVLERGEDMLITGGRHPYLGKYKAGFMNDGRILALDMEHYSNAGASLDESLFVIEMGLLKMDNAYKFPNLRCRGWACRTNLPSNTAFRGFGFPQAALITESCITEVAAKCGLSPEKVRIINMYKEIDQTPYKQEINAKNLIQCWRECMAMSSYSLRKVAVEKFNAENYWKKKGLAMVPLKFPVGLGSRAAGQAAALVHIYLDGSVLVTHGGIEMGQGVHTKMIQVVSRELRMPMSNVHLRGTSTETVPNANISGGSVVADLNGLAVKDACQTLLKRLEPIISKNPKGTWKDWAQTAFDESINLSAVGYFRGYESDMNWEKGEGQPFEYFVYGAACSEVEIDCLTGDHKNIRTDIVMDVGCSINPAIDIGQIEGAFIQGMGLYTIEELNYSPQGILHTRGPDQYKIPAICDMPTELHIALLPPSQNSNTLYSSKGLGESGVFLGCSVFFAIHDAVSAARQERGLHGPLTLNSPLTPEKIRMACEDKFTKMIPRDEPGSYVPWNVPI
As to the kind of experiment: Metabolite formation by recombinant human AOX. It counts as in vitro ADME. The note with it: trazodone 4 μM; 37 °C, 40 min.
In the case of `O=c1n(CCCN2CCNCC2)nc2ccccn12` [Metabolite M15], the “Formation of trazodone phase I metabolite by recombinant human AOX (as LC/MS peak areas)” value turned out to be 0.

As for `O=c1n(CCCO)nc2ccccn12` [Metabolite M20], the “Formation of trazodone phase I metabolite by recombinant human AOX (as LC/MS peak areas)” value is reported as 0.

For `Clc1cccc(N2CCNCC2)c1` [mCPP, m-chlorophenylpiperazine], the “Formation of trazodone phase I metabolite by recombinant human AOX (as LC/MS peak areas)” value turned out to be 106.

Another data set addresses T2, CYP2C8 (Homo sapiens, UniProt P10632).
T2 sequence (P10632 1-490): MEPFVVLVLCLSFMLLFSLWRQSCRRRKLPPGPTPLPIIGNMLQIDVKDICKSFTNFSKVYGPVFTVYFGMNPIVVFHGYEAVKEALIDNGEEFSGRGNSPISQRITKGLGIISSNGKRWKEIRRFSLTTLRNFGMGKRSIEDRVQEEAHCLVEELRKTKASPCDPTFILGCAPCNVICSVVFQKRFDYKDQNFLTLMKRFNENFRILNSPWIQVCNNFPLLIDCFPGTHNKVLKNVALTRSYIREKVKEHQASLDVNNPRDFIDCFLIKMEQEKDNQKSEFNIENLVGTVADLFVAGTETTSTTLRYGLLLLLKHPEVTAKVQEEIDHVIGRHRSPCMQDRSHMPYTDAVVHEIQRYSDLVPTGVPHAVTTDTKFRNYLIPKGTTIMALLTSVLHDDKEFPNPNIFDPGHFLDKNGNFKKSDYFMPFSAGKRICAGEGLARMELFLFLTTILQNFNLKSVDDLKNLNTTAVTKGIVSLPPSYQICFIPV
As to the kind of experiment: Metabolite formation by recombinant human CYP2C8. It counts as in vitro ADME. The note with it: trazodone 4 μM; NADPH; 37 °C, 40 min. The procedure: (§1) To confirm the role of individual CYP isoforms in metabolizing trazodone, recombinant human and rat CYP enzymes were employed in separate incubations. […] Each reaction was terminated with acetonitrile, centrifuged, and the supernatant was analyzed by identical UHPLC-Orbitrap setup outlined in §2.2, allowing direct comparison of metabolite spectra across all in-vitro systems. […] This procedure helped confirm the contributions of individual isoforms to specific biotransformation reactions.
In the case of `O=c1n(CCCN2CCNCC2)nc2ccccn12` [Metabolite M15], the “Formation of trazodone phase I metabolite by recombinant human CYP2C8 (as LC/MS peak areas)” value worked out at 26.

Take `O=c1n(CCCO)nc2ccccn12` [Metabolite M20]: the “Formation of trazodone phase I metabolite by recombinant human CYP2C8 (as LC/MS peak areas)” value is given as 0.

For the molecule `Clc1cccc(N2CCNCC2)c1` [mCPP, m-chlorophenylpiperazine], the “Formation of trazodone phase I metabolite by recombinant human CYP2C8 (as LC/MS peak areas)” value came to 327.

Another data set concerns the target CYP2C19 (Homo sapiens, UniProt P33261). As to the kind of experiment: Metabolite formation by recombinant human CYP2C19. It counts as in vitro ADME. The note with it: trazodone 4 μM; NADPH; 37 °C, 40 min. The procedure: as §1
As to `O=c1n(CCCN2CCNCC2)nc2ccccn12` [Metabolite M15], the “Formation of trazodone phase I metabolite by recombinant human CYP2C19 (as LC/MS peak areas)” value turned out to be 180.

Regarding `O=c1n(CCCO)nc2ccccn12` [Metabolite M20], the “Formation of trazodone phase I metabolite by recombinant human CYP2C19 (as LC/MS peak areas)” value is on record as 0.

In the case of `Clc1cccc(N2CCNCC2)c1` [mCPP, m-chlorophenylpiperazine], the “Formation of trazodone phase I metabolite by recombinant human CYP2C19 (as LC/MS peak areas)” value was found to be 189.

For the next data set, the target named is T3, CYP2D4 (Rattus norvegicus, UniProt Q64680).
T3 sequence (Q64680 1-500): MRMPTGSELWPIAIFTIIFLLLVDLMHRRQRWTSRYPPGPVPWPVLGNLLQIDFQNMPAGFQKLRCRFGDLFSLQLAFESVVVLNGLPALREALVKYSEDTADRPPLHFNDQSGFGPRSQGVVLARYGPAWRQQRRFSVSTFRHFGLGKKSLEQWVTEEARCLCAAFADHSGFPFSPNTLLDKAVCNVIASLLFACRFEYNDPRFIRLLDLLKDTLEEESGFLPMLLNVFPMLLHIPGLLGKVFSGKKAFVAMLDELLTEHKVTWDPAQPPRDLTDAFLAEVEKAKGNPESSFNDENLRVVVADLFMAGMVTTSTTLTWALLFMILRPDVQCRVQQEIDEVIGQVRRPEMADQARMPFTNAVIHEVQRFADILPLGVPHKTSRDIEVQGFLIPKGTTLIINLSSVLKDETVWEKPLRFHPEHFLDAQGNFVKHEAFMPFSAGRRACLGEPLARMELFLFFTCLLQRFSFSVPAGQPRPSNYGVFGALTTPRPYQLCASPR
As to the kind of experiment: Metabolite formation by recombinant rat CYP2D4. The note with it: trazodone 4 μM; NADPH; 37 °C, 40 min. It counts as in vitro ADME. The procedure: as §1
Consider `O=c1n(CCCN2CCNCC2)nc2ccccn12` [Metabolite M15], for which the “Formation of trazodone phase I metabolite by recombinant rat CYP2D4 (as LC/MS peak areas)” value worked out at 184.

`O=c1n(CCCO)nc2ccccn12` [Metabolite M20]: the “Formation of trazodone phase I metabolite by recombinant rat CYP2D4 (as LC/MS peak areas)” value came out at 538.

Take `Clc1cccc(N2CCNCC2)c1` [mCPP, m-chlorophenylpiperazine]: the “Formation of trazodone phase I metabolite by recombinant rat CYP2D4 (as LC/MS peak areas)” value is 3166.
